This note sets out measurements from patent publication US7368475B2, “Furanose-type bicyclic carbohydrates with biological activity” (Kemin Pharma BVBA, priority 2003, dated 2008).

The test system of series [1] is human T-lymphocyte cells (Molt4/C8). Briefly: Inhibition of proliferation of human T-lymphocyte cells Molt4/C8. The following applies: cytostatic activity, 50% inhibitory concentration. The series is classed as cell-based. As for the experimental part:
(§1) The compounds were tested for antitumor activity via the inhibitory effects on the proliferation of murine leukemia cells (L1210/0), murine mammary carcinoma cells (FM3A) and human T-lymphocyte cells (Molt4/C8), (CEM/0). […] Compound A1 and Compound A4 show no effect at concentrations up to 200 ppm.

For another series, the system named is A. fumigatus IHEM 2895. Briefly: microbe, parasite or virus in culture. It is filed as cell-based. The settings on record: Aspergillus fumigatus, IHEM2895, negative control = 100, read-out: % of growth at a dose of 25 PPM compared to the negative control, A. fumigatus IHEM 2895.
The test system of another series is CMV AD-169 Strain. Briefly: CMV plaque formation in HEL cells, AD-169 strain. The series is classed as cell-based, human Cytomegalovirus. The following applies: Human betaherpesvirus 5, AD169; virus plaque formation, HEL cells; virus input 100 PFU.
The test system of series [2] is human T-lymphocyte cells (CEM/0). Description: Inhibition of proliferation of human T-lymphocyte cells CEM/0. The series is classed as cell-based. The following applies: CCRF-CEM, cytostatic activity, 50% inhibitory concentration. On the procedure: as §1
Series [3] has as its system P. aeruginosa ATCC 27853 LMG 16217. Briefly: microbe, parasite or virus in culture. The series is classed as cell-based. The settings on record: Pseudomonas aeruginosa, negative control = 100, read-out: % of growth at 25 PPM compared to negative control, P. aeruginosa ATCC 27853 LMG 16217.
Series [4] concerns Candida albicans ATCC 24433 IHEM 10284. Description: microbe, parasite or virus in culture. It is filed as cell-based. The following applies: ATCC24433, negative control = 100, read-out: % of growth at a dose of 25 PPM compared to the negative control, Candida albicans ATCC 24433 IHEM 10284.
Another series has as its system VZV 07/1. Description: microbe, parasite or virus in culture. It is filed as cell-based, Varicella Zoster Virus. The following applies: Human alphaherpesvirus 3, HEL, read-out: EC50 VZV (HEL) 07/1.
Series [5] relates to S. aureus ATCC 29213 LMG 10147. Briefly: microbe, parasite or virus in culture. The series is classed as cell-based. The following applies: Staphylococcus aureus, negative control = 100, read-out: % of growth at 25 PPM compared to negative control, S. aureus ATCC 29213 LMG 10147.
For series [6], the system named is T. mentagrophytes ATCC 9233 IHEM 10342. Briefly: microbe, parasite or virus in culture. It is filed as cell-based. The following applies: Trichophyton mentagrophytes, ATCC9233, negative control = 100, read-out: % of growth at a dose of 25 PPM compared to the negative control, T. mentagrophytes ATCC 9233 IHEM 10342.
For a further series, the system named is VV. Briefly: VV-induced cytopathicity in human embryo fibroblast E6SM. It is filed as cell-based, Vaccinia Virus. The settings on record: Orthopoxvirus vaccinia, E6SM, read-out: EC50 VV (E6SM). For orientation: Protection from cytopathic effect is a common read-out in antiviral testing.
The test system of series [7] is C. neoformans ATCC 90112 IHEM 9558. Briefly: microbe, parasite or virus in culture. It is filed as cell-based. The following applies: Cryptococcus neoformans, ATCC90112, negative control = 100, read-out: % of growth at a dose of 25 PPM compared to the negative control, C. neoformans ATCC 90112 IHEM 9558.
The subject of the next series is HSV-1 (KOS). Description: HSV-1 (KOS)-induced cytopathicity in human embryo fibroblast E6SM. It is filed as cell-based, Herpes Simplex Virus. The following applies: Human alphaherpesvirus 1.
Another series deals with HSV-2 (G). Description: HSV-2 (G)-induced cytopathicity in human embryo fibroblast E6SM. The following applies: Human alphaherpesvirus 2. It is filed as cell-based, Herpes Simplex Virus.
Another series concerns HIV-2 (ROD). Briefly: HIV-2 (ROD)-induced cytopathicity in human CEM cell cultures. The series is classed as cell-based. The settings on record: Human immunodeficiency virus 2, CCRF-CEM.
The test system of a further series is E. coli ATCC 25922. Briefly: microbe, parasite or virus in culture. The series is classed as cell-based. The following applies: Escherichia coli, ATCC25922, negative control = 100, read-out: % of growth at 25 PPM compared to negative control, E. coli ATCC 25922.
In a further series the test system is VZV OKA. Description: microbe, parasite or virus in culture. It is filed as cell-based, Varicella Zoster Virus. The following applies: Human alphaherpesvirus 3, HEL, read-out: EC50 VZV (HEL) OKA.
Another series concerns CMV David Strain. Briefly: CMV plaque formation in HEL cells, David strain. The series is classed as cell-based, human Cytomegalovirus. The following applies: Human betaherpesvirus 5, virus plaque formation, virus input 100 PFU.
The test system of series [8] is murine mammary carcinoma cells (FM3A). Briefly: Inhibition of proliferation of murine mammary carcinoma cells FM3A. It is filed as cell-based. The following applies: Mus musculus, cytostatic activity, 50% inhibitory concentration, read-out: IC50 FM3A/0. As for the experimental part: as §1
The test system of series [9] is E. faecalis ATCC 29212 LMG 8222. Description: microbe, parasite or virus in culture. It is filed as cell-based. The following applies: Enterococcus faecalis, negative control = 100, read-out: % of growth at 25 PPM compared to negative control, E. faecalis ATCC 29212 LMG 8222.
Another series has as its system HIV-1 (IIIB). Description: microbe, parasite or virus in culture. The settings on record: Human immunodeficiency virus 1, IIIB, CCRF-CEM; HIV-induced cytopathicity in human CEM cell cultures. The series is classed as cell-based.
Series [10] concerns murine leukemia cells (L1210/0). Description: Inhibition of proliferation of murine leukemia cells L1210/0. It is filed as cell-based. As for the experimental part:
as §1

As a reminder, the melting point is the temperature, or range, at which the solid turns liquid.

As for `OC[C@H]1O[C@@H](c2ccccc2)[C@H](O)[C@@H]1O` [Compound A1, β-D-1-Deoxy-1-phenyl-ribofuranose], the melting point came out at 118 °C. In addition, in series [1], the IC50 was more than 200 µg/mL. Moreover, the activity at 25 ppm in the series on A. fumigatus IHEM 2895 was determined as 106%. In the series on CMV AD-169 Strain, this compound displayed an IC50 of more than 50 µg/mL. This compound also gave an IC50 in series [2] of more than 200 µg/mL. In addition, in series [3], the activity at 25 ppm turned out to be 92.7%. In addition, in series [4], the activity at 25 ppm is 89.2%. Further, the EC50 in the series on VZV 07/1 is more than 50 µg/mL. In addition, in [5], the activity at 25 ppm came to 96.7%. For the same compound, the activity at 25 ppm in series [6] came to 62.4%. For the same compound, in the series on VV, the EC50 was more than 400 µg/mL. The activity at 25 ppm in [7] worked out at 93.3%. In addition, the EC50 in the series with HSV-1 (KOS) was more than 400 µg/mL. The EC50 in the series with HSV-2 (G) is more than 400 µg/mL. The same compound registered an EC50 with HIV-2 (ROD) of more than 100 µg/mL. Moreover, the activity at 25 ppm in the series on E. coli ATCC 25922 was found to be 93.4%. Moreover, in the series with VZV OKA, the EC50 is more than 50 µg/mL. In addition, the IC50 in the series with CMV David Strain is more than 50 µg/mL. Also, the IC50 in series [8] was more than 200 µg/mL. The activity at 25 ppm in series [9] came out at 96%. The compound further came in with an EC50 in the series with HIV-1 (IIIB) of more than 100 µg/mL. Also, the IC50 in series [10] (Mus musculus, L1210/0, read-out: IC50 L1210/0) is more than 200 µg/mL. Moreover, in series [10] (at concentrations up to 200 ppm, L1210/0, FM3A, Molt4/C8, CEM/0), the “effect on cell proliferation (in words)” value is listed as “no effect”.
